# According to patent US7262215B2, “N-carbacycle monosubstituted indolocarbazoles as protein kinase inhibitors” (NAD AG, priority 2001, dated 2007):
# Key:
# Format in all cases: biochemical
# Conditions in all cases: 10 μM compound; NA = not active
# [1] = target: His tagged ERK2 (Homo sapiens, UniProt P28482); assay: Extracellular signal Regulated Kinase 2 inhibition assay (ERK2), radioactivity-based
# Experimental: Inhibition of Extracellular Signal Regulated Kinase 2 (ERK 2) Activity
# (§1) The ERK2 kinase activity assay utilizes a radioactivity-based format in a 96-well PCR plate with radioactive readout. The ERK2 activity was assayed in a 25 μL assay mixture containing 25 mM HEPES (pH 7.0), 250 μM ATP, […], 1 mM DTT, 2% DMSO, 150 ng/mL Myelin Basic Protein (MBP, Sigma M-1891), and 13.6 ng/mL His tagged ERK2 (specific activity=38.1 nmol/min*mg). Compounds were screened for inhibition of the ERK2 kinase activity at a concentration of 10 μM. The kinase reaction was allowed to proceed at 37° C. for 30 minutes, then reaction was stopped by the addition of 5 μL of 0.5M EDTA (pH 8). 15 μL of each solution were then spotted onto the corresponding square of a filtermat (8×12 glassfibre mat 90×120 mm. PE-Wallac 1450–421). The filtermat was allowed to dry and washed once with 10% TCA, 2% PPA, 500 mM NaCl each for 30 minutes at rt. Two further washings in 10% TCA and 2% PPA for 30 minutes were performed, then a final 30 minute wash in 99% EtOH at rt was done and the filtermat was air dried. The dry filtermat was then placed in a sample bag with a Meltilex sheet (Melt-on scintillator sheets […], PE-Wallac 1450–441 for filtermat A) over the filtermat. The bag was trimmed to fit into the microplate heatsealer (PE-Wallac 1495–021). The heatsealer is used to melt the Meltilex on the filtermat. The bag containing the filtermat and the melted Meltilex was then placed into a filter cassette and counted using the Microbeta Jet Scintillation and Luminescence Counter PE-Wallac 1450.
# [2] = target: T1, PKA (catalytic subunit, bovine heart) (Bos taurus, UniProt P00517); assay: Protein Kinase A inhibition assay (PKA), radioactivity-based
# T1 construct: PKA (catalytic subunit, bovine heart, Calbiochem 539486); purchased Calbiochem 539486; host or cells: bovine heart (tissue-derived)
# Experimental: as §1
# Inhibition of Protein Kinase A Activity
# The PKA kinase activity assay utilizes a radioactivity-based format in a 96-well PCR plate with radioactive readout. The PKA activity was assayed in a 25 μL assay mixture containing 25 mM HEPES (pH 7.0), 250 μM ATP, 10 mM MgCl2, 1 mM DTT, 1 mM EBTA (pH 8), 2% DMSO, 250 ng/mL Histone H2B (Roche 223 514), and 2 ng/mL PKA (catalytic subunit, bovine heart, Calbiochem 539486, specific activity=1170 μmol/min*μg). Compounds were screened for inhibition of the PKA kinase activity at a concentration of 10 μM. The kinase reaction was allowed to proceed at 37° C. for 30 minutes, then the reaction was stopped by addition of 5 μL of 0.5M EDTA (pH 8). The remainder of the protocol is identical to the one reported for ERK2.
# [3] = tested on: PKC (rat brain); assay: Protein Kinase C inhibition assay (PKC), radioactivity-based
# Experimental: as §1
# Inhibition of Protein Kinase C Activity
# The PKA kinase activity assay utilizes a radioactivity-based format in a 96-well PCR plate with radioactive readout. The PKA activity was assayed in a 25 μL assay mixture containing 25 mM HEPES (pH 7.0), 250 μM ATP, 10 mM MgCl2, 1 mM DTT, 1 mM EDTA (pH 8), 2 mM CaCl2, 2% DMSO, 250 ng/mL Histone H1 (Roche 1 004 875), and 165 ng/mL PKC (rat brain, Calbiochem 539494, specific activity=1600 nmol/min*mg), Compounds were screened for inhibition of the PKC kinase activity at a concentration of 10 μM. The kinase reaction was allowed to proceed at 37° C. for 30 minutes, then the reaction was stopped by addition of 5 μL of 0.5M EDTA (pH 8). The remainder of the protocol is identical to the one reported for ERK2.
# [4] = target: T2, GSK3β (Homo sapiens, UniProt P49841); assay: Glycogen Synthase Kinase 3β inhibition assay, radioactivity-based
# T2 construct: purchased Upstate Discovery
# T2 sequence (P49841 whole entry, species assumed): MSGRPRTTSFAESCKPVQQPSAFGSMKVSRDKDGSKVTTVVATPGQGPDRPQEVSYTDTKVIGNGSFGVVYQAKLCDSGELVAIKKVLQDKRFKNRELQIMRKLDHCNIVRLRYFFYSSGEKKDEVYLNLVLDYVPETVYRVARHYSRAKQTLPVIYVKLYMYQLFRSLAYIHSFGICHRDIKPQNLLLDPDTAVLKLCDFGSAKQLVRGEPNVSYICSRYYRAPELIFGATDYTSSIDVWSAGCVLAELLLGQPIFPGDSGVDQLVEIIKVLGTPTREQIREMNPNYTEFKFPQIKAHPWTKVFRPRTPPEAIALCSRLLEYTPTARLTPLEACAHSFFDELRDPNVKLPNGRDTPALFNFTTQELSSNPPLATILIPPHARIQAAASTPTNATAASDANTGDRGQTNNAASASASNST
# Experimental: Inhibition of Glycogen Synthase Kinase 3, Activity
# The GSK3, kinase activity assay utilizes a radioactivity-based format in a 96-well PCR plate with radioactive readout. The GSK3β activity was assayed in a 25 μL assay mixture containing 8 mM HEPES (pH 7.0), 250 μM ATP, 0.2 mM EDTA (pH 8), 2% DMSO, 250 ng/mL Myelin Basic Protein (MBP, Sigma M-1891), and 12 ng/mL GSK3 (Upstate Discovery, specific activity=607 nmol/min*GS2 peptide, concentration of 6.05 mg/mL). Compounds were screened for inhibition of the GSK3 P kinase activity at a concentration of 10 μM. The kinase reaction was allowed to proceed at 37° C. for 30 minutes, then the reaction was stopped by addition of 5 μL of 0.5M EDTA (pH 8).
# His tagged ERK2, sequence (P28482 whole entry): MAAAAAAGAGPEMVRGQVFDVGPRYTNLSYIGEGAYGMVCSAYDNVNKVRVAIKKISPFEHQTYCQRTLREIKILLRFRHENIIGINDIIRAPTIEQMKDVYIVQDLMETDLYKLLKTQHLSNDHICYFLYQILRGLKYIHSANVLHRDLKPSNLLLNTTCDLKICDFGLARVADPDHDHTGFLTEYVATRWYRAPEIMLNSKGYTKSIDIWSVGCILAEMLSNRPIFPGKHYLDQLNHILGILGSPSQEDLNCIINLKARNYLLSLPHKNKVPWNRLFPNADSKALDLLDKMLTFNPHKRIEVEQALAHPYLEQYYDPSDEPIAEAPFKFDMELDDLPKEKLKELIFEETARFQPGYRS
inhibition at 10 µM [1] [%],inhibition at 10 µM [2] [%],% Inhibition PKC [3] [%],inhibition at 10 µM [4] [%],Structure (SMILES)
84.2,18.8,45.48,83.4,O=C1NC(=O)c2c1c1c3ccccc3[nH]c1c1c2c2ccccc2n1C1C=C[C@@H](O)C1 (mixture of isomers) [NAD006]
97.8,98,81.34,69.8,N[C@H]1C=CC(n2c3ccccc3c3c4c(c5c6ccccc6[nH]c5c32)C(=O)NC4=O)C1 (mixture of isomers) [NAD040]
57.2,43.4,41.98,52.2,O=C1NC(=O)c2c1c1c3ccccc3[nH]c1c1c2c2ccccc2n1C1C=C[C@H](Cl)CC1 (mixture of isomers) [NAD085]
53.4,17.1,52.00,25.4,CC(=O)O[C@H]1C=CC(n2c3ccccc3c3c4c(c5c6ccccc6[nH]c5c32)C(=O)NC4=O)CC1 (mixture of isomers) [NAD106]
24.3,–,67.47,18.4,N[C@@H]1C=CC(n2c3ccccc3c3c4c(c5c6ccccc6[nH]c5c32)C(=O)NC4=O)C1 (mixture of isomers) [NAD116]
60,–,68.74,25,CCOC(=O)N1C(=O)c2c(c3c4ccccc4n(C4C=C[C@H](NC(C)=O)C4)c3c3[nH]c4ccccc4c23)C1=O (mixture of isomers) [NAD117]
43.2,17.3,84.32,60.8,CC(=O)O[C@@H]1C=CC(n2c3ccccc3c3c4c(c5c6ccccc6[nH]c5c32)C(=O)NC4=O)CC1 (mixture of isomers) [NAD135]
41.6,26.5,111.91,54.1,O=C1NC(=O)c2c1c1c3ccccc3[nH]c1c1c2c2ccccc2n1C1C=C[C@H](Nc2ccccc2)CC1 (mixture of isomers) [NAD148]
93.3,35.2,55.37,94.1,O=C1NC(=O)c2c1c1c3ccccc3[nH]c1c1c2c2ccccc2n1C1CC[C@H](O)[C@@H](O)[C@H]1O (mixture of isomers) [NAD149]
–,–,55.37,20.2,CN1C(=O)c2c(c3c4ccccc4n(C4C[C@H](O)[C@@H](O)[C@H]4O)c3c3[nH]c4ccccc4c23)C1=O (mixture of isomers) [NAD157]
23.3,–,72.37,30.2,CC(=O)O[C@H]1CC(n2c3ccccc3c3c4c(c5c6ccccc6[nH]c5c32)C(=O)NC4=O)[C@H](O)[C@@H]1O (mixture of isomers) [NAD160]
37.4,19.9,58.82,61.2,O=C1NC(=O)c2c1c1c3ccccc3[nH]c1c1c2c2ccccc2n1C1C=C[C@H](O)C1 (mixture of isomers) [NAD162]
–,–,102.77,–,COc1ccc(CN2C(=O)c3c(c4c5ccccc5n(C5CCC(O)CC5)c4c4[nH]c5ccccc5c34)C2=O)cc1 (centres unmarked) [NAD133]
